Several values for one entry are separate records, joined by “and”; a condition that tells them apart may be missing. Equal values may be shown once.
The compounds below were run on L1 retrotransposition (assay: HeLa dual-luciferase L1 retrotransposition assay). Settings: HeLa cells.
Assay type: cell-based, human

**Q.** For `COc1ccc([N+](=O)[O-])cc1NC(=O)c1ccc2c(c1)N(Cc1cc(C)ccc1C)C(=O)c1ccccc1S2(=O)=O` [AD34], which “Effect on L1 retrotransposition” value is on record?
**A.** did not significantly impact retrotransposition

Each compound was assayed on substrate oligonucleotide used in the EN activity assay (assay: not given). Settings: not given.
Assay type: binding
Design: key to Binding Detected? (Y/N): Binding Detected? (Y/N); Binding Detected? (Y/N)

**Q.** With `COc1ccc([N+](=O)[O-])cc1NC(=O)c1ccc2c(c1)N(Cc1cc(C)ccc1C)C(=O)c1ccccc1S2(=O)=O` [AD34] as the compound, how does the “Binding Detected? (Y/N)” value read?
**A.** N

Each compound was assayed against T1, APE1 (Homo sapiens, UniProt P27695) (assay: APE1 fluorescent oligonucleotide activity assay (abasic site substrate)). Settings: compound at 25 μM; Replicate 1.
T1 construct: purchased New England Biolabs (NEB) M0282S
Assay type: biochemical

**Q.** How did the “APE1 percent activity, Replicate 1” value turn out when `COc1ccc([N+](=O)[O-])cc1NC(=O)c1ccc2c(c1)N(Cc1cc(C)ccc1C)C(=O)c1ccccc1S2(=O)=O` [AD34] was run?
**A.** 115.867%

Same assay, conditions: compound at 25 μM; Replicate 2

**Q.** With `COc1ccc([N+](=O)[O-])cc1NC(=O)c1ccc2c(c1)N(Cc1cc(C)ccc1C)C(=O)c1ccccc1S2(=O)=O` [AD34] as the compound, how does the “APE1 percent activity, Replicate 2” value read?
**A.** 110.244%

Same assay, conditions: compound at 25 μM; Replicate 3

**Q.** How did the “APE1 percent activity, Replicate 3” value turn out when `COc1ccc([N+](=O)[O-])cc1NC(=O)c1ccc2c(c1)N(Cc1cc(C)ccc1C)C(=O)c1ccccc1S2(=O)=O` [AD34] was run?
**A.** 115.389%

Same assay, conditions: compound at 25 μM; average of 3 replicates

**Q.** For `COc1ccc([N+](=O)[O-])cc1NC(=O)c1ccc2c(c1)N(Cc1cc(C)ccc1C)C(=O)c1ccccc1S2(=O)=O` [AD34], which “APE1 percent activity, average” value is on record?
**A.** 113.833%

Same assay, conditions: inhibitors at 25 μM; relative to 0 μM inhibitor control; mean ± s.d., 3 independent experiments; read-out: APE1 activity (%)

**Q.** With `COc1ccc([N+](=O)[O-])cc1NC(=O)c1ccc2c(c1)N(Cc1cc(C)ccc1C)C(=O)c1ccccc1S2(=O)=O` [AD34] as the compound, how does the activity at 25 µM read?
**A.** 114 ± 3.1%

The compounds below were run against L1 EN (LINE-1 retrotransposon endonuclease domain) (Homo sapiens, UniProt O00370, N5T) (assay: Fluorescent oligonucleotide EN nicking activity assay). Settings: [Inhibitor] 1 μM; technical replicates 1-3, Fig. 2b source data; 1 µM.
Sequence of L1 EN (LINE-1 retrotransposon endonuclease domain) (O00370 1-239 N5T): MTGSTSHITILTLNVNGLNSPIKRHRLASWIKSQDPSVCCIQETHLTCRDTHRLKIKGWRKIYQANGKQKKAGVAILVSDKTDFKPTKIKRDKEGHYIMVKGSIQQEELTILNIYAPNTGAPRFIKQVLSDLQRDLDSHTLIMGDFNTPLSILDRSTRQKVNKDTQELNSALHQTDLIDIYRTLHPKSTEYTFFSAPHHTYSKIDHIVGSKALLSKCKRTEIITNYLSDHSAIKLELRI
Assay type: biochemical

**Q.** Which “EN activity, percent of no inhibitor control” value does the source give for `COc1ccc([N+](=O)[O-])cc1NC(=O)c1ccc2c(c1)N(Cc1cc(C)ccc1C)C(=O)c1ccccc1S2(=O)=O` [AD34] here?
**A.** 107.144% and 82.3328% (2×)

Same assay, conditions: [Inhibitor] 5 μM; technical replicates 1-3, Fig. 2b source data; 5 µM

**Q.** `COc1ccc([N+](=O)[O-])cc1NC(=O)c1ccc2c(c1)N(Cc1cc(C)ccc1C)C(=O)c1ccccc1S2(=O)=O` [AD34] was tested. Which “EN activity, percent of no inhibitor control” value did it give?
**A.** 106.747% and 72.7727% (2×)

Same assay, conditions: [Inhibitor] 10 μM; technical replicates 1-3, Fig. 2b source data; 10 µM

**Q.** With `COc1ccc([N+](=O)[O-])cc1NC(=O)c1ccc2c(c1)N(Cc1cc(C)ccc1C)C(=O)c1ccccc1S2(=O)=O` [AD34] as the compound, how does the “EN activity, percent of no inhibitor control” value read?
**A.** 61.3218%

Same assay, conditions: [Inhibitor] 10 μM; technical replicates 1-3, Fig. 2b source data; read-out: EN activity, percent of no inhibitor control

**Q.** Which remaining activity at 10 µM does the source give for `COc1ccc([N+](=O)[O-])cc1NC(=O)c1ccc2c(c1)N(Cc1cc(C)ccc1C)C(=O)c1ccccc1S2(=O)=O` [AD34] here?
**A.** 63.6%

Same assay, conditions: [Inhibitor] 25 μM; technical replicates 1-3, Fig. 2b source data; 25 µM

**Q.** Which “EN activity, percent of no inhibitor control” value does the source give for `COc1ccc([N+](=O)[O-])cc1NC(=O)c1ccc2c(c1)N(Cc1cc(C)ccc1C)C(=O)c1ccccc1S2(=O)=O` [AD34] here?
**A.** 17.0147%

Same assay, conditions: [Inhibitor] 25 μM; technical replicates 1-3, Fig. 2b source data; read-out: EN activity, percent of no inhibitor control

**Q.** `COc1ccc([N+](=O)[O-])cc1NC(=O)c1ccc2c(c1)N(Cc1cc(C)ccc1C)C(=O)c1ccccc1S2(=O)=O` [AD34] was tested. Which remaining activity at 25 µM did it give?
**A.** 13.4%

Same assay, conditions: [Inhibitor] 50 μM; technical replicates 1-3, Fig. 2b source data; 50 µM

**Q.** How did the “EN activity, percent of no inhibitor control” value turn out when `COc1ccc([N+](=O)[O-])cc1NC(=O)c1ccc2c(c1)N(Cc1cc(C)ccc1C)C(=O)c1ccccc1S2(=O)=O` [AD34] was run?
**A.** 2.345%

Same assay, conditions: [Inhibitor] 50 μM; technical replicates 1-3, Fig. 2b source data; read-out: EN activity, percent of no inhibitor control

**Q.** With `COc1ccc([N+](=O)[O-])cc1NC(=O)c1ccc2c(c1)N(Cc1cc(C)ccc1C)C(=O)c1ccccc1S2(=O)=O` [AD34] as the compound, how does the remaining activity at 50 µM read?
**A.** 1.88%

Same assay, conditions: [Inhibitor] 100 μM; technical replicates 1-3, Fig. 2b source data; 100 µM

**Q.** For `COc1ccc([N+](=O)[O-])cc1NC(=O)c1ccc2c(c1)N(Cc1cc(C)ccc1C)C(=O)c1ccccc1S2(=O)=O` [AD34], which “EN activity, percent of no inhibitor control” value is on record?
**A.** -0.6009% and -1.977% (2×)

Same assay, conditions: [Inhibitor] 250 μM; technical replicates 1-3, Fig. 2b source data; 250 µM

**Q.** For `COc1ccc([N+](=O)[O-])cc1NC(=O)c1ccc2c(c1)N(Cc1cc(C)ccc1C)C(=O)c1ccccc1S2(=O)=O` [AD34], which “EN activity, percent of no inhibitor control” value is on record?
**A.** 6.512%

Same assay, conditions: [Inhibitor] 250 μM; technical replicates 1-3, Fig. 2b source data; read-out: EN activity, percent of no inhibitor control

**Q.** Which remaining activity at 250 µM does the source give for `COc1ccc([N+](=O)[O-])cc1NC(=O)c1ccc2c(c1)N(Cc1cc(C)ccc1C)C(=O)c1ccccc1S2(=O)=O` [AD34] here?
**A.** 4.89%

From publication PMC11078990, “Identification and characterization of small molecule inhibitors of the LINE-1 retrotransposon endonuclease” (Nature Communications, 2024)
